Measured values as given in ChEMBL document CHEMBL1201862, “PubChem BioAssay data set” (2004).
Calls of active or inactive are those of the source.

What was measured:
[1] = Jurkat T cell cytotoxicity, dose response, cytotoxicity control for P. falciparum gametocyte viability project, luminescence (AID 1117277); format: functional, cell-based;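 further: potency reflects loss of cellular ATP meaning fewer viable cells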
[2] = P. falciparum late gametocyte killing, dose response, luminescence (AID 1117278); format: functional, cell-based;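 further: gametocytes exposed to compound for 24 hours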
[3] = system: Vero; assay: host cell cytotoxicity of antiviral hits, dose response, cytotoxicity control for West Nile virus antiviral project, secondary assay (AID 1650); format: functional; conditions: Chlorocebus sabaeus
[4] = HepG2 cell cytotoxicity, dose response, cytotoxicity control, plate reader, cherry-pick, antagonist series (AID 743416); format: functional, cell-based
[5] = MC4R antagonists, dose response, counter-screen for LGR2 antagonist project, cell-based, plate reader, cherry pick (AID 743444); format: functional;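 further: transfected HEK 293 cells stimulated with alpha-MSH peptide; potency of inhibitors of the alpha-MSH evoked signal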
[6] = Luminescence Cell-Based Dose Response HTS to Identify Inhibitors of 5'UTR Stem-Loop Driven Prion Protein mRNA Translation in H4 Neuroglioblastoma Cells. [Related pubchem assays: 1827 (Project Summary), 1813 (Primary HTS)]; format: functional
[7] = LGR2 antagonists, dose response, cell-based, HEK293, CRE-luciferase reporter, cherry pick, set 2 (AID 743343); format: functional;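 further: transfected cells were stimulated with diluted bursicon conditioned medium after compound addition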
[8] = HEK293 cell cytotoxicity, dose response, cytotoxicity control, plate reader, cherry-picked samples (AID 743446); format: functional, cell-based
[9] = target: T1, Protein skinhead-1 (Caenorhabditis elegans, UniProt P34707); format: functional
T1 sequence (P34707 whole entry): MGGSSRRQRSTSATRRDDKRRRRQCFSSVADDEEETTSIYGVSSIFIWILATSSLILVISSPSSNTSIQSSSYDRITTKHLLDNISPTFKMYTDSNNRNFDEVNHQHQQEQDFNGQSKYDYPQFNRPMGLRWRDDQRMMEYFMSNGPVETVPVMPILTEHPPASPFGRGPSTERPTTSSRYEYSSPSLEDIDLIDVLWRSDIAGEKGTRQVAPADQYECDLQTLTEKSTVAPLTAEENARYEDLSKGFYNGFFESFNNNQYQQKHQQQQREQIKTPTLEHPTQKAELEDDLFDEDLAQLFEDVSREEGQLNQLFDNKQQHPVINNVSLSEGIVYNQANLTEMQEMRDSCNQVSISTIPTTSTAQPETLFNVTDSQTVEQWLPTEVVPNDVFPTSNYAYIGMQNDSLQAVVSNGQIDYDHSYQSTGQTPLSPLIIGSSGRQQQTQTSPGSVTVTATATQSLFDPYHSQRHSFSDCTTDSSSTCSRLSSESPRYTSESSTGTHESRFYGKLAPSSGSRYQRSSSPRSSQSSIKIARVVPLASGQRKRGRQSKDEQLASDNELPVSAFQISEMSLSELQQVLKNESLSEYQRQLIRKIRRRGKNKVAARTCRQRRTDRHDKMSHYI

[10] = inhibitors of firefly luciferase expression or activity, dose response, H4 neuroglioma cells, luminescence (AID 1990); format: functional, cell-based
[11] = inhibitors of SNCA 5'UTR-driven reporter translation, confirmation, H4 neuroglioma cells, luminescence (AID 1988); format: functional, cell-based
[12] = target: T2, COUP transcription factor 2 (Homo sapiens, UniProt P24468); assay: Luminescence-based cell-based high throughput dose response assay to identify inhibitors of COUP-TFII (NR2F2).; format: functional;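 further: HEK293 cells transiently cotransfected with COUP-TFII expression vector and reporter; luciferase reporter luminescence driven by COUP-TFII from the pX2-168 reporter plasmid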
T2 sequence (P24468 whole entry): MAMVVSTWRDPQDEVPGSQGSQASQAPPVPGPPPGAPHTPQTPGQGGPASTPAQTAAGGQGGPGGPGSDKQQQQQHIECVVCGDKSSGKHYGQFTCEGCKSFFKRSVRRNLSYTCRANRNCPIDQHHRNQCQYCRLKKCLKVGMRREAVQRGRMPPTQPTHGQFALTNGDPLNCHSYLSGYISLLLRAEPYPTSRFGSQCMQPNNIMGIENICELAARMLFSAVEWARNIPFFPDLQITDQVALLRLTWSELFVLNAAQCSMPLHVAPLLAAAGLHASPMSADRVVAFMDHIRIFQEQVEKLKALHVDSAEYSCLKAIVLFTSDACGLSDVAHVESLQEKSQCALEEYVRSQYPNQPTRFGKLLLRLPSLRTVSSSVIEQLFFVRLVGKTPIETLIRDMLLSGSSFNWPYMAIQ

[13] = control 3'UTR Renilla luciferase suppression, dose response, counter-screen for Shn3 inhibitor project, cell-based, Clone20-Shn3RL, cherry-picked (AID 624133); format: functional
[14] = target: T3, Replicative DNA helicase DnaB (Mycobacterium tuberculosis, UniProt P9WMR3); assay: DnaB intein splicing inhibitors, dose response, biochemical, cell-free fluorescence (AID 449749); format: functional
T3 sequence (P9WMR3 whole entry): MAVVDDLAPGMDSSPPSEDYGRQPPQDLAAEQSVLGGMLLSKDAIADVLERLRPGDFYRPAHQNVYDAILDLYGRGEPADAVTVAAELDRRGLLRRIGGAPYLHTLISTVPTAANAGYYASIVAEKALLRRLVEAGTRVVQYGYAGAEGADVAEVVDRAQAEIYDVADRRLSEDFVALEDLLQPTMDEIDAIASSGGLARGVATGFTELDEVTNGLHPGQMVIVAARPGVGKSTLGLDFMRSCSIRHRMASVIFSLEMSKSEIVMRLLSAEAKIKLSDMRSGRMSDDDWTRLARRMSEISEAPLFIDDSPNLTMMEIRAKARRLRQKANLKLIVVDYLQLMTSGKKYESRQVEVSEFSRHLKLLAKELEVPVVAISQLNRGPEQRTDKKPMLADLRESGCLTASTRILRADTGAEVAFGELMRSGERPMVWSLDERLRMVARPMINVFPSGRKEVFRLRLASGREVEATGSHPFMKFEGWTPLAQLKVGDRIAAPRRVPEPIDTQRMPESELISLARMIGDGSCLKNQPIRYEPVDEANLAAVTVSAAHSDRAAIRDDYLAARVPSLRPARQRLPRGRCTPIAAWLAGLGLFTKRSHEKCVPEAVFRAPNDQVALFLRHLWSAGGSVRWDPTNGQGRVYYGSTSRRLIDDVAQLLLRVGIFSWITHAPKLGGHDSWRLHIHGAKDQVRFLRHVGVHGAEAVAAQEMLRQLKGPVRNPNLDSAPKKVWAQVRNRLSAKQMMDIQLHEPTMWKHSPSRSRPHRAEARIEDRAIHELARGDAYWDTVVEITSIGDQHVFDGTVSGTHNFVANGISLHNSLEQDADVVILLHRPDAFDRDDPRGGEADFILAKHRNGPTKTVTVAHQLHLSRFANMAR

[15] = system: Vero; assay: cells; format: functional; conditions: Chlorocebus sabaeus
[16] = Shn3 3'UTR reporter inhibitors, dose response, cell-based, Clone20 osteoblasts, firefly luciferase, cherry-picked (AID 624132); format: functional;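 further: firefly luciferase luminescence from reporter carrying the Shn3 3'UTR in osteoblasts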
[17] = HepG2 cell cytotoxicity, dose response, cytotoxicity control for Shn3 inhibitor project, CellTiter-Glo, cherry-picked (AID 624134); format: functional, cell-based
[18] = target: T4, Protein RecA (Mycobacterium tuberculosis, UniProt P9WHJ3); assay: Fluorescence Cell-Free Homogeneous Dose Retest to Identify Inhibitors of RecA-Intein Splicing Activity. [Related pubchem assays (depositor defined):AID2097, AID2223, AID489010, AID492950]; format: functional
T4 sequence (P9WHJ3 whole entry): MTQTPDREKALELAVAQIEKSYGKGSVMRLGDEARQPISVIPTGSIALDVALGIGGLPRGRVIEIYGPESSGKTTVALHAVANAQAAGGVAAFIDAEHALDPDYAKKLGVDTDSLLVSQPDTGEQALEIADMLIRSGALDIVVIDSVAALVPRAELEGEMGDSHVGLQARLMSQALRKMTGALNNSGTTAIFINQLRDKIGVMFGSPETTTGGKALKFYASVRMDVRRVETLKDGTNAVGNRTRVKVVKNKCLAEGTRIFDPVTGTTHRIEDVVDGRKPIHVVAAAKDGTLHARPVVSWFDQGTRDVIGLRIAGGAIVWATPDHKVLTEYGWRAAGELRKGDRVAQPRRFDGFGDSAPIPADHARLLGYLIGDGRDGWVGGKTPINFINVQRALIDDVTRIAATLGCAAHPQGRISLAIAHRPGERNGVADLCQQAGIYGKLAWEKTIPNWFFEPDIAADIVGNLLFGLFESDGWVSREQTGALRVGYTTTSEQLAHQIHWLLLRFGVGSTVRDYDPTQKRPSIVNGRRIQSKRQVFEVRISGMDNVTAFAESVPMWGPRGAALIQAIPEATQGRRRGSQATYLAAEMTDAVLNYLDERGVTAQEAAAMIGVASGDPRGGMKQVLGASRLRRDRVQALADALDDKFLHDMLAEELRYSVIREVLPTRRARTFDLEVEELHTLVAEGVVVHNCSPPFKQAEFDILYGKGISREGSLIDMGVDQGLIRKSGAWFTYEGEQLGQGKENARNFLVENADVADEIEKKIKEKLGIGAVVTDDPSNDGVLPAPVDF

[19] = target: Paired box protein Pax-8 (Homo sapiens, UniProt Q06710); assay: inhibitors of PAX8-driven TPO luciferase reporter, dose response, RMG-I cells, cherry-pick (AID 687027); format: functional, cell-based;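 further: luciferase reporter driven by Pax8 target thyroperoxidase promoter measured by SteadyGlo luminescence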
Paired box protein Pax-8, sequence (Q06710 whole entry): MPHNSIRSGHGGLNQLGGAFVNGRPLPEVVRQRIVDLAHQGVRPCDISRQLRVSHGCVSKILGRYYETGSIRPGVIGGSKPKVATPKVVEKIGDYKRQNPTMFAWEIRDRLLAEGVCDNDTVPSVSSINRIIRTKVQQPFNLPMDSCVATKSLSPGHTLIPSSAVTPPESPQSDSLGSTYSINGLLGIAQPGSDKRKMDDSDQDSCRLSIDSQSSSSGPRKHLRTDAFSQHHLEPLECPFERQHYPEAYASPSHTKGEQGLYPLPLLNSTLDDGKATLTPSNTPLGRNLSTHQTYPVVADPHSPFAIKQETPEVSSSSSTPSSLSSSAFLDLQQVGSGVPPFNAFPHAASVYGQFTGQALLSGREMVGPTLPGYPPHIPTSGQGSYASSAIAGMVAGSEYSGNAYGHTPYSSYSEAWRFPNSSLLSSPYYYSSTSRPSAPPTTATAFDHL

[20] = A549 cell cytotoxicity, dose response, cytotoxicity control, plate reader, cherry-pick, antagonist series (AID 743412); format: functional, cell-based
[21] = Fluorescence-based cell-based high throughput dose response assay for inhibitors of the interaction of nucleotide-binding oligomerization domain containing 2 (NOD2) and the receptor-interacting serine-threonine kinase 2 (RIPK2).; format: functional; conditions: Homo sapiens
[22] = cytotoxicity in OVCAR8 ovarian cancer cells, dose response, PAX8 project, cell-based, plate reader, dry powder samples (AID 743197); format: functional; conditions: OVCAR-8
[23] = A2780 ovarian cancer cell cytotoxicity, dose response, cytotoxicity control, plate reader, dry powder samples (AID 743046); format: functional, cell-based
[24] = NIH:OVCAR-3 ovarian cancer cell cytotoxicity, dose response, PAX8 inhibitor project, plate reader, dry powder samples (AID 743044); format: functional, cell-based
[25] = target: Kallikrein-7 (Homo sapiens, UniProt P49862); assay: Fluorescence Intensity-based biochemical primary high throughput dose response assay to identify activators of kallikrein-7 (K7) zymogen.
Kallikrein-7, sequence (P49862 whole entry): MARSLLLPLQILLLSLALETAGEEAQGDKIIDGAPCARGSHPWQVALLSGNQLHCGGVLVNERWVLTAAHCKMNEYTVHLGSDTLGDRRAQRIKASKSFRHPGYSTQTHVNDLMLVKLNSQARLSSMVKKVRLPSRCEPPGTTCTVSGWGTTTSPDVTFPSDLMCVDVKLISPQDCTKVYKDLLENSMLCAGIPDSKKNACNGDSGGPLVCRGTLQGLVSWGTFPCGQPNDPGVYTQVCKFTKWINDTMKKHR

[26] = cytotoxicity toward Colo320 cells – cell-based, CellTiter-Glo luminescence, IC50, dose response (AID 1117334); format: functional; conditions: COLO 320
[27] = RKO cell viability reduction, dose response, CellTiter-Glo luminescence (AID 1117322); format: functional
[28] = cytotoxicity toward HCT116 cells – cell-based, CellTiter-Glo luminescence, IC50, dose response (AID 1117332); format: functional; conditions: HCT-116
[29] = Concentration-dependent survival of SW480 colon cancer line, luminescence detection with CellTiter-Glo, half-maximal inhibitory concentration (AID 1117338); format: functional
[30] = CellTiter-Glo luminescent dose response of DLD-1 viability loss (AID 1117352); format: functional
[31] = cytotoxicity toward HT-29 cells – cell-based, CellTiter-Glo luminescence, IC50, dose response (AID 1117330); format: functional
[32] = SNU-C1 cell viability reduction, dose response, CellTiter-Glo luminescence (AID 1117323); format: functional, cell-based

## Cc1ccc(C(=O)N2CCN(S(=O)(=O)c3ccccc3)CC2)cc1
[1]
  IC50: > 83.3 µM (inactive)
[2]
  IC50: > 109 µM (inactive)

## Cc1cccc(-c2cc3nc(C)cc(NCCCN(C)C)n3n2)c1
[3]
  CC50: 64.2 µM (active)

## CCCOc1ccc2cc(-c3ccccn3)c(=O)oc2c1
[4]
  AC50: > 52 µM (inactive)
[5]
  AC50: 2 µM (active)
[6]
  EC50: 9.71 µM (active)
[7]
  AC50: 1.48 µM (active)
[8]
  AC50: 33.6 µM (active)
[9]
  IC50: > 100 µM (inactive)
[10]
  EC50: 2.91 µM (active)
[11]
  EC50: 2.83 µM (active)

## O=C(COC(=O)CSc1ccc2ccccc2c1)NCc1ccc2c(c1)OCO2
[1]
  IC50: > 83.3 µM (inactive)
[2]
  IC50: > 109 µM (inactive)

## Cn1c2ccccc2c(=O)c2cc(C#CC3(O)CCCCC3)ccc21
[12]
  IC50: 12 µM (inactive)

## CCN(CC)CCNC(=O)CSc1c2c(nc3cc(Cl)ccc13)CCCC2
[13]
  AC50: 25.5 µM (active)
[3]
  CC50: 18.8 µM (active)
[14]
  AC50: 241 µM (active)
[15]
  CC50: > 25 µM (active)
[16]
  AC50: 14.9 µM (active)
[17]
  AC50: > 70 µM (inactive)
[18]
  EC50: 11.8 µM (active)

## COc1ccc2nc(Nc3nc(O)cc(CSc4nnnn4-c4ccccc4)n3)nc(C)c2c1
[3]
  CC50: > 100 µM (active)

## O=C1NC2C(O)C(O)C(O)C(O)C2c2cc3c(c(O)c21)OCO3 (stereo not drawn)
[4]
  AC50: 0.428 µM (active)
[5]
  AC50: 0.372 µM (active)
[19]
  AC50: < 0.26 µM (active)
[7]
  AC50: 0.362 µM (active)
[8]
  AC50: 0.321 µM (active)
[20]
  AC50: 0.358 µM (active)
[21]
  IC50: 49.8 µM (inactive)

## C[C@H]1CCCCO[C@@H](CN(C)Cc2ccc(C(F)(F)F)cc2)[C@@H](C)CN([C@@H](C)CO)C(=O)c2cc(NC(=O)Cc3ccccc3)ccc2O1
[19]
  AC50: 7.94 µM (active)
[22]
  AC50: 30.8 µM (active)
[23]
  AC50: 0.963 µM (active)
[24]
  AC50: 11.4 µM (active)

## Clc1ccc(-c2cnc3cccnn23)cc1
[25]
  EC50: > 69.5 µM (inactive)

## CS(=O)(=O)Cc1cc(N2CCCC2)nc(-c2ccccc2)n1
[1]
  IC50: > 83.3 µM (inactive)
[2]
  IC50: > 109 µM (inactive)

## C[C@@H]1CN([C@H](C)CO)C(=O)Cc2cc(NS(=O)(=O)c3ccc(Cl)cc3)ccc2O[C@@H]1CN(C)Cc1ccc(C(F)(F)F)cc1
[4]
  AC50: 10.4 µM (active)
[5]
  AC50: 20.2 µM (active)
[7]
  AC50: 22.7 µM (active)
[8]
  AC50: 15.8 µM (active)
[20]
  AC50: 7.62 µM (active)

## CN(CCOc1ccc(CC2SC(=O)NC2=O)cc1)c1ccccn1 (stereo not drawn) [ROSIGLITAZONE]
[26]
  IC50: > 20 µM (inactive)
[27]
  IC50: > 20 µM (inactive)
[28]
  IC50: > 20 µM (inactive)
[29]
  IC50: > 20 µM (inactive)
[30]
  IC50: > 20 µM (inactive)
[31]
  IC50: > 20 µM (inactive)
[32]
  IC50: 8.69 µM (inactive)
